The source of these data is ChEMBL document CHEMBL2417363, “Identification of quinazolinyloxy biaryl urea as a new class of SUMO activating enzyme 1 inhibitors” (Bioorg Med Chem Lett, 2013).

Broadly, the logP is a log measure of how a compound divides between an organic and an aqueous phase. A word on the IC50: it is the concentration needed to halve the response being measured.

Activity calls are given as the source filed them. The rule behind the calls is not given here.

In one series the target is T1, SUMO-activating enzyme (Homo sapiens) (UniProt Q9UBE0+Q9UBT2). The series can be described thus: Inhibition of SUMO E1 (unknown origin)-biotinylated SUMO-1 thioester complex formation at 10 uM after 20 mins by SDS-PAGE analysis in presence of ATP. The series is classed as protein-complex assay.
Details: not given
`CCCCCC/C=C\CCCCCCCc1cccc(O)c1C(=O)O`: the inhibition result is “Active”.
The same measure, in the same setting: as for `COc1ccc(NC(=O)Nc2ccc(Oc3ncnc4cc(Cl)ccc34)nc2)cc1OC1CCCC1`, the entry is “Active”.

For the next series, the target named is T1, SUMO-activating enzyme (Homo sapiens). Kind of series: Inhibition of SUMO E1 (unknown origin)-mediated RanGAP1 sumoylation at 100 uM by immunoblotting analysis. The series is classed as protein-complex assay.
Details: not given
(In general: In western blotting, separated proteins are transferred to a membrane and probed.)
On to `O=C(Nc1ccc(Oc2ncnc3cc(Cl)ccc23)nc1)Nc1cccc(C(F)(F)F)c1`, for which the inhibition entry was “Active”.
Take `O=C(Nc1ccc(OCc2ccccc2)cc1)Nc1ccc(Oc2ncnc3cc(Cl)ccc23)nc1`: the inhibition entry was “Active”.
The same measure, in the same setting: as for `COc1ccc(NC(=O)Nc2ccc(Oc3ncnc4cc(Cl)ccc34)nc2)cc1OC1CCCC1`, the entry is “Active”; as for `O=C(Nc1ccccc1)Nc1ccc(Oc2ncnc3cc(Cl)ccc23)nc1`, “Active”; as for `O=C(Nc1ccc(F)cc1)Nc1ccc(Oc2ncnc3cc(Cl)ccc23)nc1`, “Active”.

The target is the same in the next series. The series can be described thus: Inhibition of SUMO E1 (unknown origin)-mediated RanGAP1 sumoylation at < 30 uM by immunoblotting analysis. The series is classed as protein-complex assay.
Details: not given
With `O=C(Nc1ccc(Oc2ncnc3cc(Cl)ccc23)nc1)Nc1cccc(C(F)(F)F)c1`, the inhibition entry is “inactive”.

Tested on in a further series: not listed separately
The series can be described thus: Octanol-water partition coefficient, log P of the compound. It is filed as physicochemical.
Details: not given
The compound `N#Cc1ccc(NC(=O)Nc2ccc(Cc3ccc(NC(=O)Nc4ccc(C#N)cc4)cc3)cc2)cc1` registered a logP of 2.8.
Still for that read-out and setting: next, `O=C(Nc1ccc(Oc2ncnc3cc(Cl)ccc23)nc1)Nc1cccc(C(F)(F)F)c1`: 4.5.
Same read-out and setting: as for `COc1ccc(NC(=O)Nc2ccc(Cc3ccc(NC(=O)Nc4ccc(OC)cc4)cc3)cc2)cc1`, the figure is 4.4; as for `Cc1cccc(NC(=O)Nc2ccc(Cc3ccc(NC(=O)Nc4cccc(C)c4)cc3)cc2)c1`, 4.8.

The target in another series is T2, SUMO-activating enzyme (Homo sapiens, UniProt Q9UBT2). Kind of series: Inhibition of SUMO E1 (unknown origin) assessed as SUMO E1-SUMO thioester bond formation.
T2 sequence (Q9UBE0 whole entry): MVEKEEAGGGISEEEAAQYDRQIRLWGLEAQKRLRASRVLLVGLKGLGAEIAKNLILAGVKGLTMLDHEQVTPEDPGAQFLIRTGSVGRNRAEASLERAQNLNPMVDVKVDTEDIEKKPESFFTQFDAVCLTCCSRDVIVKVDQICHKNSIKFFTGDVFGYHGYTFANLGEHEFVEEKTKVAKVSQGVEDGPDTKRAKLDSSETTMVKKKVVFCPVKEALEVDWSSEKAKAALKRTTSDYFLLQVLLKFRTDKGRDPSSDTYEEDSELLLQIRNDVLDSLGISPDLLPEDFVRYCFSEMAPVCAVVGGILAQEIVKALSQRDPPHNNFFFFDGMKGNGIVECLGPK
T2 sequence (Q9UBT2 whole entry): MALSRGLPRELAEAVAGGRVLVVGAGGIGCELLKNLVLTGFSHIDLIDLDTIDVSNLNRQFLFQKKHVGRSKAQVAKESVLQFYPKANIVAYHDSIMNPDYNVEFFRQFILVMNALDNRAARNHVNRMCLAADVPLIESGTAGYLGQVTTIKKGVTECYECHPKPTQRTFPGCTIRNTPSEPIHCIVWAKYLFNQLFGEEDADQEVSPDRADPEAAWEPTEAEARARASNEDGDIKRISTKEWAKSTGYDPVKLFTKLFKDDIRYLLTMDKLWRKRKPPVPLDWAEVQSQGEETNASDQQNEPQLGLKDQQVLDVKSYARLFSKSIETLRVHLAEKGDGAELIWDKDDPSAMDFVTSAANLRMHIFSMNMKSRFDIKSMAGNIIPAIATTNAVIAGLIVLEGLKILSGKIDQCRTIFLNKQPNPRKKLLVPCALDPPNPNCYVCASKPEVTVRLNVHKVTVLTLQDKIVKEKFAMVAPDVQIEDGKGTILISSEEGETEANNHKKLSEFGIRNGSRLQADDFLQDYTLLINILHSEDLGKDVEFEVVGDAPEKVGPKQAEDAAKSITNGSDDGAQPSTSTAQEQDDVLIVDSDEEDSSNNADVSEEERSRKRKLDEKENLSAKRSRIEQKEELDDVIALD
Details: not given
The series is classed as protein-complex assay.
As for `N#Cc1ccc(NC(=O)Nc2ccc(Cc3ccc(NC(=O)Nc4ccc(C#N)cc4)cc3)cc2)cc1`, the 50% inhibitory concentration (IC50) worked out at 11.1 µM.
On the same count and under the same terms, as for `COc1ccc(NC(=O)Nc2ccc(Cc3ccc(NC(=O)Nc4ccc(OC)cc4)cc3)cc2)cc1`, the figure is 11.7 µM; as for `Cc1cccc(NC(=O)Nc2ccc(Cc3ccc(NC(=O)Nc4cccc(C)c4)cc3)cc2)c1`, 14.4 µM.

Tested on in the next series: not listed separately
Kind of series: Permeability across human Caco2 cells. It is filed as ADME, cell-based. Particulars: Caco-2, read-out: permeability. For orientation: Caco-2 cells form a polarised layer with tight junctions and transporters.
In the case of `N#Cc1ccc(NC(=O)Nc2ccc(Cc3ccc(NC(=O)Nc4ccc(C#N)cc4)cc3)cc2)cc1`, the Papp came to 1.52 ×10⁻⁶ cm/s.
The same measure, in the same setting: next, `O=C(Nc1ccc(Oc2ncnc3cc(Cl)ccc23)nc1)Nc1cccc(C(F)(F)F)c1`: 66.2 ×10⁻⁶ cm/s; `COc1ccc(NC(=O)Nc2ccc(Cc3ccc(NC(=O)Nc4ccc(OC)cc4)cc3)cc2)cc1`: 35.3 ×10⁻⁶ cm/s.
`Cc1cccc(NC(=O)Nc2ccc(Cc3ccc(NC(=O)Nc4cccc(C)c4)cc3)cc2)c1`: the Papp is 35.4 ×10⁻⁶ cm/s.

The next series addresses T1, SUMO-activating enzyme (Homo sapiens). Kind of series: (§1) Inhibition of SUMO E1 (unknown origin)-mediated RanGAP1 sumoylation by immunoblotting analysis.
Details: not given
The series is classed as protein-complex assay.
As to `O=C(Nc1ccc(Oc2ncnc3cc(Cl)ccc23)nc1)Nc1cccc(C(F)(F)F)c1`, the inhibition entry was “Dose-dependent effect”.
On the same count and under the same terms, as for `O=C(Nc1ccc(OCc2ccccc2)cc1)Nc1ccc(Oc2ncnc3cc(Cl)ccc23)nc1`, the entry is “Dose-dependent effect”; as for `COc1ccc(NC(=O)Nc2ccc(Oc3ncnc4cc(Cl)ccc34)nc2)cc1OC1CCCC1`, “Dose-dependent effect”.
Take `O=C(Nc1ccccc1)Nc1ccc(Oc2ncnc3cc(Cl)ccc23)nc1`: the inhibition result was “Dose-dependent effect”.
Same read-out and setting: next, `O=C(Nc1ccc(F)cc1)Nc1ccc(Oc2ncnc3cc(Cl)ccc23)nc1`: “Dose-dependent effect”.

The target of the next series is T2, SUMO-activating enzyme. The series is described as §1.
Details: not given
The series is classed as protein-complex assay.
On to `O=C(Nc1ccc(Oc2ncnc3cc(Cl)ccc23)nc1)Nc1cccc(C(F)(F)F)c1`, for which the half-inhibitory concentration (IC50) was determined as 35.6 µM.
`O=C(Nc1ccc(OCc2ccccc2)cc1)Nc1ccc(Oc2ncnc3cc(Cl)ccc23)nc1` gave a half-maximal inhibitory concentration (IC50) of 35.4 µM.
The same measure, in the same setting: as for `COc1ccc(NC(=O)Nc2ccc(Oc3ncnc4cc(Cl)ccc34)nc2)cc1OC1CCCC1`, the figure is 13.4 µM; as for `O=C(Nc1ccccc1)Nc1ccc(Oc2ncnc3cc(Cl)ccc23)nc1`, 57.3 µM; as for `O=C(Nc1ccc(F)cc1)Nc1ccc(Oc2ncnc3cc(Cl)ccc23)nc1`, 73 µM.
